From paper PMC8508710, “Biochemical Characterization of 13-Lipoxygenases of Arabidopsis thaliana” (International Journal of Molecular Sciences, 2021)
Like-named read-outs stand apart in the source and are kept apart here.

How the values were obtained:
[1] = biological target: T1, LOX4 (Arabidopsis thaliana, UniProt Q9FNX8); experiment: LOX4 activity, oxygen electrode (polarography); type: biochemical; design: made in house; host or cells: E. coli Nico21(DE3), pET15b; conditions: enzyme incubated with 280 µM chemical (1/10 vol of 2.8 mM), injected into 30 µM LeA, 50 mM Tris-HCl pH 7.2; vs solvent control; read-out: Polarography Relative Activity (%) LOX4
T1 sequence (Q9FNX8 71-926): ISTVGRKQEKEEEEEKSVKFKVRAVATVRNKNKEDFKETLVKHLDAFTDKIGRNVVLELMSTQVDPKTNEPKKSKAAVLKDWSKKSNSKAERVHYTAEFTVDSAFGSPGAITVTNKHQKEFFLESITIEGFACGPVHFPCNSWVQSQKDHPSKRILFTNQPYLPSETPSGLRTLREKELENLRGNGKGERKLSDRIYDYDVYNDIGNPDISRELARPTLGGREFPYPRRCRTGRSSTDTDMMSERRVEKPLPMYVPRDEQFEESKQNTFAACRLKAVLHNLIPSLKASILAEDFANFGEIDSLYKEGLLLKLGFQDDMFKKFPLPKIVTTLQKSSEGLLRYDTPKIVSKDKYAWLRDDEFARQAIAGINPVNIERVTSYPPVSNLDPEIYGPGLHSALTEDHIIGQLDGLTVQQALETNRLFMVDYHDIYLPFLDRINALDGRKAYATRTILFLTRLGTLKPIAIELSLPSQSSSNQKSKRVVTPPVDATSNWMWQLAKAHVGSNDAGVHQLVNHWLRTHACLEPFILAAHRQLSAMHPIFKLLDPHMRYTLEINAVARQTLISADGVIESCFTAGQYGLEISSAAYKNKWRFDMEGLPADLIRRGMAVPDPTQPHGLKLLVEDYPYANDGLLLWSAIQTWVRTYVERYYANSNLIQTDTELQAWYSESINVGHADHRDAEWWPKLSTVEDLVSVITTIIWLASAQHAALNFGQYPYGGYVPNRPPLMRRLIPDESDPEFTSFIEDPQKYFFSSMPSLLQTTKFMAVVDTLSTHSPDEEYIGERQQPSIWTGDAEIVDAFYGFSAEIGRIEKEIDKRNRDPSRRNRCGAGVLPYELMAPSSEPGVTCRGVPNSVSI

[2] = system: AOS; design: method as in PMID 12223729; conditions: cited from earlier work
[3] = biological target: T1, LOX4; experiment: LOX4 activity, spectrophotometric (conjugated diene formation at 234 nm); conditions: for Photometry Relative activity (%) LOX4: enzyme 0.225 µg/µL incubated 10 min 30 °C with 280 µM chemical, 4.8 µM LeA, 50 mM Tris-HCl pH 7.2, vs solvent control; for Relative Activity (%) LOX4: E. coli lysate in 50 mM TRIS pH 8.0 diluted 1:10, 50 mM HEPES pH 8.0 + 1 mM metal salt, LeA, 234 nm
[4] = system: AOC; design: method as in PMID 12223729; conditions: cited from earlier work
[5] = biological target: T2, LOX3 (Arabidopsis thaliana, UniProt Q9LNR3); experiment: Intrinsic fluorescence of LOX3; type: binding; design: made in house; host or cells: E. coli Nico21(DE3), pET15b; conditions: as Figure 5B; for Emission maximum: control 330.8±1.6, in nm (unit assumed); for Relative fluorescence intensity at emission maximum: λExc = 280 nm, control 134.5±3.9
T2 sequence (Q9LNR3 71-919): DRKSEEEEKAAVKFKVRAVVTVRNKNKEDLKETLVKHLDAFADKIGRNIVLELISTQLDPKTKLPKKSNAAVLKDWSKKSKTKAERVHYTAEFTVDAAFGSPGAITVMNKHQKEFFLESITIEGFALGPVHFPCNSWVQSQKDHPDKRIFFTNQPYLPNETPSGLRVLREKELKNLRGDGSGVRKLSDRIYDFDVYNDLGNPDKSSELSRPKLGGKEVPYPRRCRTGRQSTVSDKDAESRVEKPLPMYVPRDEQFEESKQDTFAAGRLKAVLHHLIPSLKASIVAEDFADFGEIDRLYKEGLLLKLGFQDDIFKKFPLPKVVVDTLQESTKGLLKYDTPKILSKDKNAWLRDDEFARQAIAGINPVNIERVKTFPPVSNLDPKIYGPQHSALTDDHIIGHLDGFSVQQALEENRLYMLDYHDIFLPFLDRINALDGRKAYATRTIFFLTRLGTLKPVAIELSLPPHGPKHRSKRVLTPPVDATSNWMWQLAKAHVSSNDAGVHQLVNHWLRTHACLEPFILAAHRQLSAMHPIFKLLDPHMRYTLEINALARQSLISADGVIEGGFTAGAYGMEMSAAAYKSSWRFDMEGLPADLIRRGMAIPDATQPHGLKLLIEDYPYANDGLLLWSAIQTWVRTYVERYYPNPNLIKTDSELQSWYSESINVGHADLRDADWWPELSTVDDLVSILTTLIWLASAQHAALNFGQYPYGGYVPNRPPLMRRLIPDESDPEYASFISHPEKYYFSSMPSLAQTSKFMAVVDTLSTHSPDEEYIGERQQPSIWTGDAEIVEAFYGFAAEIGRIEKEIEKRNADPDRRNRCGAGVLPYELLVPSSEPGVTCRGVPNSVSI
Description: Figure 5 Analysis of the interaction of 12-OPDA and MJ with LOX4. […] LOX4 (0.22 µg/µL) was incubated with compounds at indicated concentrations for 10 min at 30 °C, and residual LOX activity was measured spectrophotometrically by the injection of 3 µL incubation mixture into 123 µL LeA (4.8 µM in 50 mM Tris-HCl, pH 7.2). […] (B) Intrinsic fluorescence of LOX4 incubated with 12-OPDA, MJ and solvent (control). Here, 120 µL LOX4 (0.2 µg/µL) was mixed with 15 µL chemical (1.4 mM in 50 mM K-Pi, pH 8.0) or solvent (control) and analyzed for intrinsic fluorescence emission after excitation at λExc = 280 nm. Mean graphs are shown (n = 4).
Int. J. Mol. Sci. 2021, 22, x FOR PEER REVIEW 11 of 17
Figure S7. Interaction and activity studies of LOX2, LOX3 and LOX6. (A) LOX2, LOX3 and LOX6 activities in presence of increasing amounts of MJ and 12-OPDA. Analysis was performed as described for IC50 determination of LOX4 (see Figure 5A). 100% activity […]
(B) Intrinsic fluorescence of LOX2 and LOX3 incubated with 12-OPDA, MJ and solvent control. Analysis was performed as in Figure 5B. […]

[6] = biological target: T2, LOX3; experiment: LOX3 activity, oxygen electrode (polarography); type: biochemical; design: made in house; host or cells: E. coli Nico21(DE3), pET15b; conditions: for Relative Activity (%) LOX3: 1 mM metal salt, LeA 30 µM in 20 mM HEPES pH 8.0, oxygen consumption vs control without metal

In the case of `CCC=CCC1C(=O)C=CC1CCCCCCCC(=O)O` (stereo not drawn) [12-OPDA, cis-(+)-12-oxophytodienoic acid], the activity at 280 µM [1] is given as 21 ± 5%, the “Sensitivity of AOS” value ([2]; 0.5 mM) is given as “insensitivity” and the IC50 [3] is given as 48 µM. For the same molecule, the Ki [3] was 10 µM, the Mode of inhibition ([3]; Lineweaver–Burk and Dixon plots) was “non-competitive or mixed” and the “Photometry Relative activity (%) LOX4” value [3] was 6 ± 4%. For the same molecule, the “Sensitivity of AOC” value ([4]; 0.5 mM) was “insensitivity”, the Emission maximum [5] was 333.2±0.3 and the “Relative fluorescence intensity at emission maximum” value [5] was 115.2±1.3.
In the case of `[Ca+2].[Cl-].[Cl-]` [CaCl2], the “Sensitivity of AOS” value ([2]; 1.0 mM) is given as “insensitivity”, the “Relative Activity (%) LOX3” value [6] is given as 117 ± 10% and the “Relative Activity (%) LOX4” value [3] is given as 85±6%. For the same molecule, the “Sensitivity of AOC” value ([4]; 1.0 mM) was “insensitivity”.
In the case of `O=S(=O)([O-])[O-].[Cd+2]` [CdSO4], the “Relative Activity (%) LOX3” value [6] is reported as “no activity” and the “Relative Activity (%) LOX4” value [3] is reported as 40±6%.
With `CC/C=C\CC1C(=O)CCC1CC(=O)OC` (centres unmarked) [MJ, methyl jasmonate] the activity at 280 µM [1] was 95 ± 3%, the Emission maximum [5] was 331.7±0.8 and the “Relative fluorescence intensity at emission maximum” value [5] was 126.4±3.0.
For `[Cl-].[Cl-].[Mg+2]` [MgCl2], the “Sensitivity of AOS” value ([2]; 1.0 mM) is given as “insensitivity”, the “Increase of LOX3 activity in comparison to control” value ([6]; 1 mM cation, LeA 30 µM, pH 8.0) is given as 35% and the “Relative Activity (%) LOX3” value [6] is given as 135 ± 4%. For the same molecule, the “Relative Activity (%) LOX4” value [3] was 107±2% and the “Sensitivity of AOC” value ([4]; 1.0 mM) was “insensitivity”.
For `O=C(O)c1ccccc1O` [SA, salicylic acid], the activity at 280 µM [1] was 101 ± 4%.
With `O=C(O)/C=C/CCCCCCCCC(=O)O` [TA, traumatic acid] the activity at 280 µM [1] was 100 ± 9% and the “Photometry Relative activity (%) LOX4” value [3] was 106 ± 4%.
